Values of other authors, collected in article PMC4078388 (EJNMMI Research, 2014).

System: INS-1 tumour
Conditions: Balb/c nude mice, 1 h after injection
Source text: One additional challenge when imaging β-cells is the limited amount of overall GLP-1 receptors available which requires the administration of low amounts of peptide with a high specific activity in order to avoid receptor blocking [[13]]. One potential way to further increase the specific activity and therefore reduce the amount of tracer necessary to obtain a clear image is to attach several chelators to the peptide allowing more radioactivity per molecule.

**Q.** For [Lys^40(^68Ga-DOTA)]exendin-3, which “uptake in INS-1 tumour” value is on record?
**A.** Its value is 8.9 ± 3.1 %iA/g.

**Q.** What about the “uptake in the pancreas” value of the same substance?
**A.** Its value is 6.7 ± 1.8 %iA/g.
